Assay results from PMC8123931 (Nature chemical biology, 2020).
Where two headings read alike, the source gives them in different places.

How the values were obtained:
EGFR ex19del/T790M/C797S = EGFR ex19del/T790M/C797S (Homo sapiens, UniProt P00533, C797S/DEL746-750/T790M); assay: In vitro kinase assay, recombinant kinase domain; type: biochemical
EGFR L858R/T790M/C797S [1] = biological target: T1, EGFR L858R/T790M/C797S (Homo sapiens, UniProt P00533, C797S/L858R/T790M); assay: MaMTH-DS assay, EGFR L858R/T790M/C797S bait with CrkII and Hsp90; type: cell-based
EGFR L858R/T790M/C797S [2] = biological target: T1, EGFR L858R/T790M/C797S; assay: MaMTH-DS assay and screen, EGFR L858R/T790M/C797S bait with Shc1 prey; type: cell-based
EGFR L858R/T790M/C797S [3] = biological target: T1, EGFR L858R/T790M/C797S; assay: In vitro kinase assay, recombinant kinase domain; type: biochemical
[4] = biological target: purified pig brain tubulin (Sus scrofa, UniProt P02550+P02554); assay: In vitro microtubule dynamics assay with mCherry-EB3; type: biochemical
Chain of purified pig brain tubulin (P02550 whole entry): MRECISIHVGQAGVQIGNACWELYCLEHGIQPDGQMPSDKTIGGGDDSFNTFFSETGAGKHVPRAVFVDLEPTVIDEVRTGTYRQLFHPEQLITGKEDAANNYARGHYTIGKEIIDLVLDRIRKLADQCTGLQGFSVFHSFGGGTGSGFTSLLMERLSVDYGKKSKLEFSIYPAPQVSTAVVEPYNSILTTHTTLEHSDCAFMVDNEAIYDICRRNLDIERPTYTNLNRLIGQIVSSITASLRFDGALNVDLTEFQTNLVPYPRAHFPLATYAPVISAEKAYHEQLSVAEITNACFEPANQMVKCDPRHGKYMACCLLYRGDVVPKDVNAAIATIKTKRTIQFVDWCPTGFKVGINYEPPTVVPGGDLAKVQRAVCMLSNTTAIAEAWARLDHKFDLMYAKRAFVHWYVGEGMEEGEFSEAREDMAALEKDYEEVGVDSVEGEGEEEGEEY
Chain of purified pig brain tubulin (P02554 whole entry): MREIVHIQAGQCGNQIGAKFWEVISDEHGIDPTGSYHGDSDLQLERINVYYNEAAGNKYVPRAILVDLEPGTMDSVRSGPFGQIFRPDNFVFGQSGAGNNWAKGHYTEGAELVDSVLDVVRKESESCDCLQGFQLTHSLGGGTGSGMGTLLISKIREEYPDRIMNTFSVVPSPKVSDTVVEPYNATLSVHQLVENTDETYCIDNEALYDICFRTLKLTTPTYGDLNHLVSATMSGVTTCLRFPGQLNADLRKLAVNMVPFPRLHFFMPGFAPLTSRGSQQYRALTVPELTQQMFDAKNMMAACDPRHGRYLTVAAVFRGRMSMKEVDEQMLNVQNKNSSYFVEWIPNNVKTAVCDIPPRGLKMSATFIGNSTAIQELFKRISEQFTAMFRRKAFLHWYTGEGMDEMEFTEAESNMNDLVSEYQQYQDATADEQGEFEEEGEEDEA

inhibition of kinase activity of EGFR triple-mutant protein (EGFR ex19del/T790M/C797S): no inhibition of the kinase activity | interaction of Shc1 with EGFR L858R/T790M/C797S (in words) (EGFR L858R/T790M/C797S [2]; listed as ChemBridge compound 5213777): robust, dose-dependent inhibition | inhibition of kinase activity of EGFR triple-mutant protein (EGFR L858R/T790M/C797S [3]): no inhibition of the kinase activity
Structure (SMILES): CCN(CC)c1ccc2cc(-c3nc4ccccc4o3)c(=O)oc2c1 [EMI1, 3-(1,3-benzoxazol-2-yl)-7-(diethylamino)-2H-chromen-2-one]
interaction of CrkII with EGFR L858R/T790M/C797S (EGFR L858R/T790M/C797S [1]): inhibited interaction of both proteins with EGFR at a level similar to that observed with Shc1 | interaction of Hsp90 with EGFR L858R/T790M/C797S (EGFR L858R/T790M/C797S [1]): inhibited interaction of both proteins with EGFR at a level similar to that observed with Shc1 | interaction of Shc1 with EGFR L858R/T790M/C797S (in words) (EGFR L858R/T790M/C797S [2]): potently reducing the interaction of EGFR triple mutant with Shc1 | microtubule dynamics (growth rate, time, catastrophe frequency) [4]: reduced microtubule growth rate and time, while increasing catastrophe frequency
